According to patent publication US20240343713A1, “TELOMERASE INHIBITOR COMPOUNDS” (Geron Corporation, priority 2023, published 2024):

Assays:
[1] = for deaths after first dose reduction: 25 mg/Kg (Compound 1, Compound 2) or 10 mg/Kg (Compound 3) PO on Day-10 and Day-12, deaths Day 11-13; for animals lost due to overdose early in the study: initial dosing 50 mg/Kg then 25 or 10 mg/Kg PO, 7 animals per group
Procedure: 7.1 Body Weight. The body weight data of NOD-SCID mice used for this study involving different treatment groups (Vehicle Control, 10 mg/Kg of the three treatment groups and 50 mg/Kg of the reference standard) was monitored every alternate day.

LUC-MOLM13 cell line = settings: for leukemia cell burden / tumor load by bioluminescence imaging (BLI), overall: male NOD-SCID mice, LUC-MOLM13 i.v., PO alternate days, test compounds finally 10 mg/Kg, BIBR-1532 50 mg/Kg, up to Day 28, vs vehicle control
Procedure: Screening of anticancer activity of compounds in an efficacy model using Luc-MOLM13 cell line
The efficacy study was conducted to assess the tumor regression of Compound 1, Compound 2, and Compound 3 shown below in male NOD-SCID mice using LUC-MOLM13 cell line. Individual animals were assigned identification markings on the ear.
Each mouse was intravenously injected with 1 million LUC-MOLM13 tumor cells in a total volume of 0.1 mL in DPBS and this would be considered as Day 0. Luciferin (150 mg/Kg body weight) was planned to be injected (JP) 5 mins before imaging and sequential 1-2 images of mice were planned every 1 minute. The animals were planned to be dosed with test compounds from Day 10 onwards by oral route at doses of 50 mg/Kg every alternate day.
The efficacy study was conducted to assess the inhibitory effect of Compound 1, Compound 3 and Compound 2 on leukemia cell expansion in male NOD-SCID mice using LUC-MOLM13 cell line.
1 million of LUC-MOLM13 cells/100 μL were suspended in DPBS and were inoculated per mouse via intravenous route in the lateral tail vein in NOD SCID male mice (Fed animals) of 6 to 8 weeks old after 7 days of acclimatization. This was considered as Day-0 of the study.
Luciferin (150 mg/Kg body weight) was injected (IP) 5 mins before imaging and sequential 1-2 images of mice were taken every 1 minute.
Bioluminescence imaging for tumor evaluation was done on Days 0, 5, 10, 15, 18, 21 and 28 respectively along with regular body weight monitoring. The following observations were monitored at regular intervals: body weight (% body weight loss), frequencies of leukemic cells (LUC-MOLM13) in hematopoietic organs and non-lymphoid tissues using imaging on an IVIS spectrum imager for tumor burden evaluation.
Other observations included any clinical signs/observations upon dosing. […] A range of tissues were collected including brain, axillary lymph node, eyes, branchial lymph node, lungs, heart, stomach, liver, kidney, spleen, cervical lymph node, mesenteric lymph node, inguinal lymph node, GI tract and male reproductive organ. Growth kinetics of Luc-MOLM13 cells was monitored based on BLI along with survival curve.
Initial plan was to dose from Day 10 onwards by oral route at doses of 50 mg/Kg every alternate day; however, we initiated the dosing from Day-8 onwards based on few reports [7, 8]. […] BIBR-1532 dosing was maintained at 50 mg/Kg every alternate day. […] Dosing was stopped for the next 4 days for all test compounds and BIBR-1532 considering the animal health condition. […]
The data for bioluminescence imaging levels (BLI (Avg Radiance) was captured from the instrument across the individual groups for the ROI (region of interest (ROI) and the average radiance was calculated to understand the levels as compared to vehicle control (Group 3).

| SMILES | deaths after first dose reduction [1] | animals lost due to overdose early in the study [1] | loss of animals after the first dose ([1]; mouse, in vivo) | leukemia cell burden / tumor load by bioluminescence imaging (BLI), overall (LUC-MOLM13 cell line) | overall animal health ([1]; LUC-MOLM13 tumor-bearing NOD-SCID mice, test compounds 10 mg/Kg, BIBR-1532 50 mg/Kg PO) | bioluminescence (average radiance) on Day 21 (LUC-MOLM13 cell line; Day 21, test compounds 10 mg/Kg, BIBR-1532 50 mg/Kg PO) | survival curve / deaths (LUC-MOLM13 cell line; after dose reduction, test compounds 10 mg/Kg, BIBR-1532 50 mg/Kg PO alternate days, until Day 34) |
| --- | --- | --- | --- | --- | --- | --- | --- |
| C=C1C(=O)OC(c2ccc(Cl)cc2-c2cnn(C)c2)C1O (stereo not shown) [Compound 3] | 1 | two | one | comparable impact on leukemia cell reduction to that of BIBR-1532, albeit at a lower dosage | – | – | – |
| C/C(=C\C(=O)Nc1ccccc1C(=O)O)c1ccc2ccccc2c1 [BIBR-1532, reference compound] | – | – | – | repressed as the days progressed | deteriorated | signal was enhanced | one death on Day 31 and another on Day 34 |
| C=C1CC(c2ccc(Cl)cc2-c2cn[nH]c2)OC1=O (stereo not shown) [Compound 1] | one animal each on Day 12 and Day-13 | two | – | – | – | – | – |
